Measured values: patent US7160733B2, “Ligand specific to β2-glycoprotein I and use thereof” (priority 2001, dated 2007)

Columns and labels:
EY2C9 = assay: ELISA on solid-phase lipid (ligand)-coated plate: EY2C9 binding in presence of β2-GPI; set-up: species or system human; settings: for EY2C9 binding, No treatment: absorbance at 490 nm, mean ± SD (n = 3), solid-phase ligand not methylated
Description: (§1) Binding to extracted lipids: A microtiter plate (Immulon 1B, Dynex Technologies Inc.) was coated with lipids extracted from LDLs (50 μg/mL, 50 μL/well) by ethanol evaporation. The wells were blocked with PBS containing 1% BSA for one hour and the wells were incubated with 30 μg/mL of β2-GPI for one hour. Then, β2-GPI binding was detected using Cof-22 and HRP-labeled anti-mouse IgG antibodies. Alternatively, an anti-β2-GPI autoantibody (Cof-22, WB-CAL-1, or EY2C9) was diluted with a 0.3% BSA-containing PBS, and the diluted antibody was added to the coated plate (1.0 μg/mL, 100 μL/well) and incubated with β2-GPI (15 μg/mL) for one hour. The binding of the antibody was detected by an HRP-labeled anti-mouse IgG /or an anti-human IgM. The color was developed with H2O2 and o-phenylenediamine, and OD was measured at 490 nm. Between these steps, extensive washing were done using PBS containing 0.05% Tween 20.
(§2) Synthesized oxLig-1 (50 μg/mL, 50 μL/well) was adsorbed by evaporation on a polystyrene plate (Immulon 1B; Dynex Technologies Inc.), and the plate was then blocked with 1% BSA. Serum samples (diluted 1:100 with PBS containing 0.3% BSA) were incubated in the wells with β2-GPI (15 μg/mL) or other proteins for one hour at room temperature. Antibody binding was detected with HRP-labeled anti-human IgG. Further steps were performed through a method as described in “anti-β2-GPI ELISA.”
(§3) CL (50 μg/mL, 50 μL/well) was adsorbed on a polystyrene plate (Immulon 1B), and further steps were performed through a method as described in “ELISA for antibodies against a protein-oxLig-1 complex.”

WB-CAL-1 = assay: ELISA on solid-phase lipid (ligand)-coated plate: WB-CAL-1 binding in presence of β2-GPI; set-up: species or system mouse; settings: for WB-CAL-1 binding, No treatment: absorbance at 490 nm, mean ± SD (n = 3), solid-phase ligand not methylated
Description: as §1, §2, §3

β2-GPI [1] = target: T1, β2-GPI (Homo sapiens, UniProt P02749); assay: ELISA on solid-phase lipid (ligand)-coated plate: β2-GPI binding detected with Cof-22; settings: for β2-GPI binding (Cof-22 binding), No treatment: absorbance at 490 nm, mean ± SD (n = 3), solid-phase ligand not methylated; for β2-GPI binding to lipid: result in words (discussion)
T1 construct: β2-GPI was purified from normal human plasma as described in [35] with slight modification; from tissue; host or cells: pooled normal human plasma from healthy subjects
T1 sequence (P02749 20-345): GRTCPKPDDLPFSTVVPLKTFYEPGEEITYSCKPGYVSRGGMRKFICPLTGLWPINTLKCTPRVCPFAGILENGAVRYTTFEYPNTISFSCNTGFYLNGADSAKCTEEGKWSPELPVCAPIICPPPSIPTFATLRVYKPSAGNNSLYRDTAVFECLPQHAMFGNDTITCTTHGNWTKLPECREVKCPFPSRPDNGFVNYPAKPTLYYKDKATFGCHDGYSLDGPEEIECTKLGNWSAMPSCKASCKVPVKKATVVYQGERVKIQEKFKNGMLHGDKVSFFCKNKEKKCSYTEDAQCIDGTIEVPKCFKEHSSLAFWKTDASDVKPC
Description: as §1, §2, §3

anti-β2-GPI antibodies = assay: ELISA of the anti-β2-GPI antibodies by use of a ligand-coated plate (results in words); format: binding; settings: result in words; for binding of the anti-β2-GPI autoantibodies (WB-CAL-1 and EY2C9) to solid-phase ligand: ligand-coated plate
Description: as §1, §2

APS-2 = assay: ELISA on solid-phase lipid-coated plate: binding of antibodies of APS patient serum APS-2; set-up: species or system human; settings: Absorbance, mean ± SD, n = 3
Description: (§4) To eliminate endogenous β2-GPI in some experiments, serum samples were passed through a heparin-Sepharose column. The effluent was dialyzed against PBS and was used for ELISAs.
as §2, §3

APS-1 = assay: ELISA on solid-phase lipid-coated plate: binding of antibodies of APS patient serum APS-1; set-up: species or system human; settings: Absorbance, mean ± SD, n = 3
Description: as §4, §2, §3

J774A.1 cells = assay: Liposome binding to macrophages (3H-labeled liposomes, 4° C.); format: cell-based, murine; settings: result in words; for direct binding of liposomes to macrophages: J774A.1 cells, 2 hours at 4° C., 50 nmol lipid/well, without β2-GPI and antibody; for binding of liposomes to macrophages after methylation of the ligand: liposomes containing methylated ligand, with β2-GPI and WB-CAL-1, FIGS. 20C and 20D; for uptake of ligand-containing liposomes to J774A.1 cells in the presence of both β2-GPI and WB-CAL-1: compared with cholesteryl linoleate-liposomes (control), FIG. 20
Description: FIG. 10. Effect of phosphatidylserine (PS) or oxLig-1 content on the binding of liposomes to macrophages. A monolayer of J774.A1 cells was incubated for 2 hours at 4° C. with Celgrosser-P medium containing ^3H-labeled liposomes (50 nmol lipid/well). Open circle represents PS-liposomes; closed circle represents PS-Chol-liposomes; open square represents oxLig-1-liposomes; and closed square represents oxLig-1-Chol-liposomes. Data are indicated as the mean± SD of triplicate samples.
FIG. 11. β2-GPI and anti-β2-GPI monoclonal antibody-dependent binding of ligand-containing liposomes to macrophage. A monolayer of J774.A1 cells was incubated for 2 hours at 4° C. with Celgrosser-P medium containing ^3H-labeled liposomes (50 nmol lipid/well) and WB-CAL-1, in the presence or absence of β2-GPI (200 μg/ml). • A: Binding of PS-liposomes (PS: 50 mol %,) to J774.A1. cells in the presence (closed square) or absence (open square) of β2-GPI (200 μg/ml) • B: Binding of oxLig-1-liposomes (oxLig-1: 40 mol %) to J774.A1 cells in the presence (black bar) or absence (white bar) of β2-GPI (200 μg/ml). • C: A monolayer of J774.A1 cells was incubated for 2 hours at 4° C. with Celgrosser-P medium containing ^3H-labeled synthesized oxLig-1-liposomes (50 nmol lipid/well) and WB-CAL-1, in the presence or absence of β2-GPI (200 μg/ml). Binding of synthesized oxLig-1-liposomes in the absence of β2-GPI and WB-CAL-1 (open circle), binding of synthesized oxLig-1-liposomes in the presence of β2-GPI (open square), binding of synthesized oxLig-1-liposomes in the presence of WB-CAL-1 (closed square), and binding of synthesized oxLig-1-liposomes in the presence of both β2-GPI and WB-CAL-1 (closed circle). Data are indicated as the mean ± SD of triplicate samples.
A monolayer of J774.A1 cells was incubated for 2 hours at 4° C. with Celgrosser-P medium containing [^3H]-labeled liposomes (containing a predetermined ligand, 50 nmol lipid/well). DPPS-containing liposomes (open squares), oxLig-1-containing liposomes (closed squares), oxLig-2-containing liposomes (closed circles), and 13-COOH-7KC-containing liposomes (closed triangles). Data are indicated as mean± SD of triplicate samples.
A monolayer of J774.A1 cells was incubated for 2 hours at 4° C. with Celgrosser-P medium containing [^3H]-labeled liposomes (containing a predetermined ligand (30 mmol %), 50 nmol lipid/well) and in the presence (black bars) or absence (white bars) of β2-GPI (200 μg/mL) and WB-CAL-1 ([…]).
A monolayer culture of murine macrophage-like cells (J774A.1) obtained from Riken Cell Bank (Tsukuba) was maintained in RPMI 1640 medium supplemented with 10% fetal carf serum (FCS). For binding experiments, the cells (8×10^5 cells/mL, RPMI1640) were dispensed in an amount of 1 mL/well into a 12-well culture plate (Sumitomo Bakelite Co., Ltd.) and were incubated for 24 hours at 37° C., then the culture broth was replaced with Celgrosser-P medium (Sumitomo Pharmaceutical Co.). After one hour of preincubation at 37° C., 50 μL of liposomes (50 nmol lipid/well) with or without β2-GPI (200 μg/mL) and WB-CAL-1 (100 μg/mL) were added to each culture, and the cells were incubated at 4° C. and/or 37° C. The wells were next washed with chilled PBS, and the cells were lysed by adding 1 mL of 0.1N NaOH. An aliquot was taken for determination of cellular proteins and of radioactivity associated with the cells. Protein concentration was determined in a manner as described above.

β2-GPI [2] = assay: ELISA on solid-phase lipid (ligand)-coated plate: β2-GPI binding detected with Cof-22; set-up: species or system human; settings: Experiment 2; Absorbance, mean ± SD, n = 3; synthesized oxLig-1-solidified plate, added protein 15 μg/mL
Description: as §1, §2, §3

[3] = Experiment 1, Absorbance, mean ± SD, n = 3, solid-phase lipid, β2-GPI 15 μg/mL
[4] = Experiment 1, solid-phase lipid, β2-GPI 15 μg/mL, serum with β2-GPI removed
[5] = Experiment 2, Absorbance, mean ± SD, n = 3, synthesized oxLig-1-solidified plate, added protein 15 μg/mL
[6] = Experiment 2, synthesized oxLig-1-solidified plate, added protein 15 μg/mL

Molecule: CCCCC/C=C\C/C=C\CCCCCCCC(=O)O[C@H]1CC[C@@]2(C)C(=CC[C@H]3[C@@H]4CC[C@H]([C@H](C)CCCC(C)C)[C@@]4(C)CC[C@@H]32)C1 [Cholesteryl linoleate, reference compound]
- EY2C9 binding, No treatment (EY2C9): 0.074 +/− 0.012
- WB-CAL-1 binding, No treatment (WB-CAL-1): 0.056 +/− 0.002
- β2-GPI binding (Cof-22 binding), No treatment (β2-GPI [1]): 0.061 +/− 0.005
- β2-GPI binding to lipid (β2-GPI [1]): did not bind
- binding of the anti-β2-GPI autoantibodies (WB-CAL-1 and EY2C9) to solid-phase ligand (anti-β2-GPI antibodies): no such binding was observed

Molecule: CC(C)CCC[C@@H](C)[C@H]1CC[C@H]2[C@@H]3C(=O)C=C4C[C@@H](O)CC[C@]4(C)[C@H]3CC[C@]12C [7-ketocholesterol, 5-cholesten-3β-ol-7-one, reference compound]
- β2-GPI binding to lipid (β2-GPI [1]): did not bind
- binding of the three antibodies (WB-CAL-1, EY2C9, mouse monoclonal anti-β2-GPI antibody) to immobilized lipid (anti-β2-GPI antibodies): did not bind

Molecule: CCCCC/C=C\C/C=C\C/C=C\C/C=C\CCCC(=O)O[C@H](COC(=O)CCCCCCCCCCCCCCC)COP(=O)([O-])OCC[N+](C)(C)C [PAPC, 1-Palmitoyl-2-arachidonoyl-phosphatidylcholine, reference compound]
- Binding of β2-GPI-dependent aCL, EY2C9 (EY2C9; [3]): 0.011 ± 0.003
- Binding of β2-GPI-dependent aCL, WB-CAL-1 (WB-CAL-1; [3]): 0.012 ± 0.001
- Binding of β2-GPI-dependent aCL, Cof-22 (β2-GPI [1]; [3]): 0.019 ± 0.003
- Binding of β2-GPI-dependent aCL, APS-2 (APS-2; [4]): 0.010 ± 0.002
- Binding of β2-GPI-dependent aCL, APS-1 (APS-1; [4]): 0.000 ± 0.001

Molecule: CC(C)CCC[C@@H](C)[C@H]1CC[C@H]2[C@@H]3C(=O)C=C4C[C@@H](OC(=O)CCCCCCCCCCCC(=O)O)CC[C@]4(C)[C@H]3CC[C@]12C [13-COOH-7KC, 13-oxo-13-(7-ketocholest-5-en-3β-yloxy)tridecanoic acid]
- direct binding of liposomes to macrophages (J774A.1 cells): relatively low or negligible small
- binding of liposomes to macrophages after methylation of the ligand (J774A.1 cells): substantially no binding
- uptake of ligand-containing liposomes to J774A.1 cells in the presence of both β2-GPI and WB-CAL-1 (J774A.1 cells): significantly enhanced
- EY2C9 binding, No treatment (EY2C9): 1.062 +/− 0.040
- WB-CAL-1 binding, No treatment (WB-CAL-1): 0.336 +/− 0.027
- β2-GPI binding (Cof-22 binding), No treatment (β2-GPI [1]): 1.303 +/− 0.049
- β2-GPI binding to lipid (β2-GPI [1]): significant bonding
- binding of the anti-β2-GPI autoantibodies (WB-CAL-1 and EY2C9) to solid-phase ligand (anti-β2-GPI antibodies): significant binding

Molecule: CC(C)CCC[C@@H](C)[C@H]1CC[C@H]2[C@@H]3C(=O)C=C4C[C@@H](OC(=O)CCCCCCCC(=O)CCC(=O)O)CC[C@]4(C)[C@H]3CC[C@]12C [oxLig-2, 4,12-dioxo-12-(7-ketocholest-5-en-3β-yloxy)dodecanoic acid]
- direct binding of liposomes to macrophages (J774A.1 cells): relatively low or negligible small
- binding of liposomes to macrophages after methylation of the ligand (J774A.1 cells): substantially no binding
- uptake of ligand-containing liposomes to J774A.1 cells in the presence of both β2-GPI and WB-CAL-1 (J774A.1 cells): significantly enhanced
- EY2C9 binding, No treatment (EY2C9): 1.018 +/− 0.121
- WB-CAL-1 binding, No treatment (WB-CAL-1): 0.518 +/− 0.023
- β2-GPI binding (Cof-22 binding), No treatment (β2-GPI [1]): 1.002 +/− 0.084
- β2-GPI binding to lipid (β2-GPI [1]): significant bonding
- binding of the anti-β2-GPI autoantibodies (WB-CAL-1 and EY2C9) to solid-phase ligand (anti-β2-GPI antibodies): significant binding

Molecule: CC(C)CCC[C@@H](C)[C@H]1CC[C@H]2[C@@H]3CC=C4C[C@@H](O)CC[C@]4(C)[C@H]3CC[C@]12C [cholesterol, Cholesterol, reference compound]
- β2-GPI binding to lipid (β2-GPI [1]): did not bind
- binding of the three antibodies (WB-CAL-1, EY2C9, mouse monoclonal anti-β2-GPI antibody) to immobilized lipid (anti-β2-GPI antibodies): did not bind

B1: β2-GPI: β2-Glycoprotein I purified from normal human plasma (protein, UniProt P02749 20-345, looked up)
Beta-2-glycoprotein 1: T1 sequence (P02749 20-345)
- Binding of protein-dependent oxLig-1 antibody, EY2C9 (EY2C9; [5]): 1.147 ± 0.028
- Binding of protein-dependent oxLig-1 antibody, WB-CAL-1 (WB-CAL-1; [5]): 0.812 ± 0.023
- Binding of protein-dependent oxLig-1 antibody, Cof-22 (β2-GPI [2]): 1.007 ± 0.031
- Binding of protein-dependent oxLig-1 antibody, APS-2 (APS-2; [6]): 0.755 ± 0.024
- Binding of protein-dependent oxLig-1 antibody, APS-1 (APS-1; [6]): 1.043 ± 0.054
